From BindingDB's records for PubMed 35080403 (Yunnan University of Chinese Medicine, 2022)

Molecular target: Maltase-glucoamylase (Homo sapiens, UniProt O43451)
Assay: Inhibition of Alpha-glucosidase (unknown origin)

Chain of Maltase-glucoamylase (O43451 whole entry): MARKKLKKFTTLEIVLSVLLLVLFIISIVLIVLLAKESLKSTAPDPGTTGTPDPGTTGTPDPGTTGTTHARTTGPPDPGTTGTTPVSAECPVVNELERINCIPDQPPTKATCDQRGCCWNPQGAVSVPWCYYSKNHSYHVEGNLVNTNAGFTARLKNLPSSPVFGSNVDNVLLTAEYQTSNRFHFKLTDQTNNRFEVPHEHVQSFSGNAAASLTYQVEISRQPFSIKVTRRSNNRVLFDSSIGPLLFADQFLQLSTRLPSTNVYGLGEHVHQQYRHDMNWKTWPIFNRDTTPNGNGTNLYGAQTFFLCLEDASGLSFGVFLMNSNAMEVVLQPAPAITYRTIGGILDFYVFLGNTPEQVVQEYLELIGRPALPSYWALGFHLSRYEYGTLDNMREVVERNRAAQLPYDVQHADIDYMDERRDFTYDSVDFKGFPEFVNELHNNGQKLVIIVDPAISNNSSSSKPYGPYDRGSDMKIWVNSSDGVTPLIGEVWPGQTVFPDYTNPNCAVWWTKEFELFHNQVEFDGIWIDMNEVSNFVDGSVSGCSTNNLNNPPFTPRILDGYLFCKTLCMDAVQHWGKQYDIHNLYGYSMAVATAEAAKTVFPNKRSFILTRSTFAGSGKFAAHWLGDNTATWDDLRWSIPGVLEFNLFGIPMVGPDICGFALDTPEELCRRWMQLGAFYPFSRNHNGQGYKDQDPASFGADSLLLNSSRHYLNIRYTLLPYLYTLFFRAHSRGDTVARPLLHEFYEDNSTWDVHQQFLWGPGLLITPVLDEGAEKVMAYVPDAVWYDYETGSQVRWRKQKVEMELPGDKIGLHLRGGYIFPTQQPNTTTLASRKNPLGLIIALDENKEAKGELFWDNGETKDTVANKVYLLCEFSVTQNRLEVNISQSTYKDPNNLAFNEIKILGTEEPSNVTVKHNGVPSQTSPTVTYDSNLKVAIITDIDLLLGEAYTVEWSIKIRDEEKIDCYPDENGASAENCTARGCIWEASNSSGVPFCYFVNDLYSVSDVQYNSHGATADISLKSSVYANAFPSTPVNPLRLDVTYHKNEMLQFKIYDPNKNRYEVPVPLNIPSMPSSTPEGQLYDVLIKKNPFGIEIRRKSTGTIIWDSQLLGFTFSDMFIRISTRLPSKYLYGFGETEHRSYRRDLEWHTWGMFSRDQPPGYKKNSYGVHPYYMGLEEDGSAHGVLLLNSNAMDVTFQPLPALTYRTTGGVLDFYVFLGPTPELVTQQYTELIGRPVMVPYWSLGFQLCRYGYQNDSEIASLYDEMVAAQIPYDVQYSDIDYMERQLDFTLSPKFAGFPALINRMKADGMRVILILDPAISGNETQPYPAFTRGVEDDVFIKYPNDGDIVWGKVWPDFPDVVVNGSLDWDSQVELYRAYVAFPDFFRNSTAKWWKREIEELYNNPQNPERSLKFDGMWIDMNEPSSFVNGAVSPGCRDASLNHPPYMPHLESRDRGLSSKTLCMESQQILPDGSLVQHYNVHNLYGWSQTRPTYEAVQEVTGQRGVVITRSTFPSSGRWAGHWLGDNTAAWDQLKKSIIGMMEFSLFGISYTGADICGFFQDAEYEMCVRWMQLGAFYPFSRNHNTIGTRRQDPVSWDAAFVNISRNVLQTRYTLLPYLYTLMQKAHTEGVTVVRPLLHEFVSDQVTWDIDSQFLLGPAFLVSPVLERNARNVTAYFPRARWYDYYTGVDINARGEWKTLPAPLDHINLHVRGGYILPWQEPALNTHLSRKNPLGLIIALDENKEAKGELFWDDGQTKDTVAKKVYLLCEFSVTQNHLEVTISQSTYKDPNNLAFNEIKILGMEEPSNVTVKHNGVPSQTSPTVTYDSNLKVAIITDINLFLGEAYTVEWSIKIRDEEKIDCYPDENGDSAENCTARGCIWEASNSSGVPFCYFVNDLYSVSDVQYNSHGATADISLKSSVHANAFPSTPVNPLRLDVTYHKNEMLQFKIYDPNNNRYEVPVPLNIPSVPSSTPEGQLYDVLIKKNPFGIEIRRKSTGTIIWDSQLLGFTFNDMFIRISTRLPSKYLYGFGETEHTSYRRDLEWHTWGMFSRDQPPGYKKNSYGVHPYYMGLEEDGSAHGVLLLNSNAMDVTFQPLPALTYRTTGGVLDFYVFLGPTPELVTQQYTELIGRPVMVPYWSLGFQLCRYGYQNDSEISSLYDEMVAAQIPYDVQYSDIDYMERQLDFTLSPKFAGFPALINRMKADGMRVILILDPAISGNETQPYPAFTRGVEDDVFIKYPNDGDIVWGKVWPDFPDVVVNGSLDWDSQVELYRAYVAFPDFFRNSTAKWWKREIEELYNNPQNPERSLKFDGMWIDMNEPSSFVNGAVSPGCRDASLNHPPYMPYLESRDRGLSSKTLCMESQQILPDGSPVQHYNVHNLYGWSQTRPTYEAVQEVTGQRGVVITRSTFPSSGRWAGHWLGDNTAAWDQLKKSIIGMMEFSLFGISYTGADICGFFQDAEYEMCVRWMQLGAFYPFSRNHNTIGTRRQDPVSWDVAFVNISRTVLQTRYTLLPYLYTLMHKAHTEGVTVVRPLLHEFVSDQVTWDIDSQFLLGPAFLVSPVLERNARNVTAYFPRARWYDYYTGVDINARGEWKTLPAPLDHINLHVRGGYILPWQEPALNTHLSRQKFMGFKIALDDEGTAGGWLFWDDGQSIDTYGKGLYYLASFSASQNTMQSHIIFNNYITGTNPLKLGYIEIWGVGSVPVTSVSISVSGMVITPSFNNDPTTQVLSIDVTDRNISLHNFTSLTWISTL

- IC50: 15.3 µM
Structure (SMILES): CC/C=C\C/C=C\CCC(=O)O[C@@]12[C@H](OC(=O)[C@@H](C)CC)[C@@H](C)[C@@]3(O)[C@@H](C(=O)C(CO)=C[C@]4(O)C(=O)C(C)=C[C@@H]34)[C@@H]1C2(C)C
